Reference: PubChem BioAssay (NCI)
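Compound exposure: 48 hours, 5 concentrations, 96-well plates. GI50 = concentration required for 50% inhibition of growth. TGI: concentration producing complete growth inhibition.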

Columns and labels:
Test in all cases: NCI anticancer screen, dose series, 48 h
ACHN renal = tested on: ACHN renal
BT-549 breast = tested on: BT-549 breast
EKVX NSCLC = tested on: EKVX NSCLC
HL-60(TB) leukemia = tested on: HL-60(TB) leukemia
HT29 colon = tested on: HT29 colon
NCI-H522 lung = tested on: NCI-H522 lung
OVCAR-5 ovarian = tested on: OVCAR-5 ovarian
PC-3 prostate = tested on: PC-3 prostate
SF-268 CNS = tested on: SF-268 CNS
UO-31 renal = tested on: UO-31 renal

Question: Which results are given for `CCOC(=O)C(Cc1ccc(N(CCCl)CCCl)cc1)NC(=O)C(CC(C)C)NC(C)=O` (stereo not given)?
Answer: GI50 (ACHN renal): 0.173 µM; TGI (ACHN renal): 1.42 µM; GI50 (BT-549 breast): 7.07 µM; TGI (BT-549 breast): 21.7 µM; GI50 (EKVX NSCLC): 5.95 µM; TGI (EKVX NSCLC): 19.7 µM; GI50 (HL-60(TB) leukemia): 0.304 µM; TGI (HL-60(TB) leukemia): 1.9 µM; GI50 (HT29 colon): 1.28 µM; TGI (HT29 colon): 5.68 µM; GI50 (NCI-H522 lung): 1.13 µM; TGI (NCI-H522 lung): 2.65 µM; GI50 (OVCAR-5 ovarian): 3.18 µM; TGI (OVCAR-5 ovarian): 12 µM; GI50 (PC-3 prostate): 1.3 µM; TGI (PC-3 prostate): 5.4 µM; GI50 (SF-268 CNS): 1.09 µM; TGI (SF-268 CNS): 5.51 µM; GI50 (UO-31 renal): 0.512 µM; TGI (UO-31 renal): 2.91 µM

Question: `C[As](C)SCC(COC(=O)c1ccccc1)OC(=O)c1ccccc1` (stereo not given) was tested. Which GI50 (ACHN renal) did it give?
Answer: Its GI50 is 0.0369 µM.

Question: What about the TGI (ACHN renal) of the same molecule?
Answer: Its TGI is 0.285 µM.

Question: And the GI50 (BT-549 breast)?
Answer: Its GI50 is 1.01 µM.

Question: And the TGI (BT-549 breast)?
Answer: The TGI was 6.4 µM.

Question: What about the GI50 (EKVX NSCLC) of the same molecule?
Answer: Its GI50 is 1.86 µM.

Question: And the TGI (EKVX NSCLC)?
Answer: Its TGI is 10.7 µM.

Question: What about the GI50 (HL-60(TB) leukemia) of the same molecule?
Answer: The GI50 was 0.0161 µM.

Question: And the TGI (HL-60(TB) leukemia)?
Answer: The TGI was 0.1 µM.

Question: What about the GI50 (HT29 colon) of the same molecule?
Answer: The GI50 was 0.302 µM.

Question: What about the TGI (HT29 colon) of the same molecule?
Answer: The TGI was 2.26 µM.

Question: And the GI50 (NCI-H522 lung)?
Answer: The GI50 was 0.0836 µM.

Question: What about the TGI (NCI-H522 lung) of the same molecule?
Answer: Its TGI is 2.92 µM.

Question: And the GI50 (OVCAR-5 ovarian)?
Answer: Its GI50 is 0.556 µM.

Question: And the TGI (OVCAR-5 ovarian)?
Answer: Its TGI is 2 µM.

Question: And the GI50 (PC-3 prostate)?
Answer: The GI50 was 0.358 µM.

Question: And the TGI (PC-3 prostate)?
Answer: Its TGI is 15.7 µM.

Question: And the GI50 (SF-268 CNS)?
Answer: The GI50 was 0.344 µM.

Question: What about the TGI (SF-268 CNS) of the same molecule?
Answer: Its TGI is 4.42 µM.

Question: And the GI50 (UO-31 renal)?
Answer: Its GI50 is 0.763 µM.

Question: What about the TGI (UO-31 renal) of the same molecule?
Answer: The TGI was 8.06 µM.

Question: For `O=C(NC(c1ccccc1)C(O)C(=O)OCc1ccc2c(c1)C(=O)c1ccccc1C2=O)c1ccccc1` (stereo not given), which TGI (ACHN renal) is on record?
Answer: The TGI was 43.7 µM.

Question: What about the TGI (BT-549 breast) of the same molecule?
Answer: The TGI was over 100 µM.

Question: And the TGI (EKVX NSCLC)?
Answer: Its TGI is over 83.1 µM.

Question: What about the TGI (HL-60(TB) leukemia) of the same molecule?
Answer: The TGI was over 100 µM.

Question: And the TGI (HT29 colon)?
Answer: The TGI was over 85.2 µM.

Question: What about the TGI (NCI-H522 lung) of the same molecule?
Answer: The TGI was 63.6 µM.

Question: And the TGI (OVCAR-5 ovarian)?
Answer: Its TGI is 79.9 µM.

Question: What about the TGI (PC-3 prostate) of the same molecule?
Answer: Its TGI is 42.1 µM.

Question: What about the TGI (SF-268 CNS) of the same molecule?
Answer: Its TGI is 70.1 µM.

Question: And the TGI (UO-31 renal)?
Answer: The TGI was 10.1 µM.

Question: Which TGI (ACHN renal) does the source give for `CC[N+]1(C)CCC(O)(/C=C/c2ccccc2)C(C(=O)/C=C/c2ccccc2)C1` (stereo not given) here?
Answer: The TGI was 25.4 µM.

Question: What about the TGI (BT-549 breast) of the same molecule?
Answer: The TGI was 34.5 µM.

Question: What about the TGI (EKVX NSCLC) of the same molecule?
Answer: Its TGI is 51.6 µM.

Question: What about the TGI (HL-60(TB) leukemia) of the same molecule?
Answer: Its TGI is 8.48 µM.

Question: And the TGI (HT29 colon)?
Answer: Its TGI is 27.5 µM.

Question: What about the TGI (NCI-H522 lung) of the same molecule?
Answer: The TGI was 3.78 µM.

Question: What about the TGI (OVCAR-5 ovarian) of the same molecule?
Answer: The TGI was 36.1 µM.

Question: What about the TGI (PC-3 prostate) of the same molecule?
Answer: Its TGI is 29.6 µM.

Question: What about the TGI (SF-268 CNS) of the same molecule?
Answer: Its TGI is 60.5 µM.

Question: And the TGI (UO-31 renal)?
Answer: The TGI was 29.5 µM.

Question: Which GI50 (ACHN renal) does the source give for `CCCCc1ccc(C(N)=O)nc1` here?
Answer: Its GI50 is over 100 µM.

Question: And the TGI (ACHN renal)?
Answer: The TGI was over 100 µM.

Question: What about the GI50 (BT-549 breast) of the same molecule?
Answer: The GI50 was over 100 µM.

Question: What about the TGI (BT-549 breast) of the same molecule?
Answer: The TGI was over 100 µM.

Question: And the GI50 (EKVX NSCLC)?
Answer: Its GI50 is 48.9 µM.

Question: What about the TGI (EKVX NSCLC) of the same molecule?
Answer: The TGI was over 100 µM.

Question: And the GI50 (HL-60(TB) leukemia)?
Answer: Its GI50 is over 100 µM.

Question: What about the TGI (HL-60(TB) leukemia) of the same molecule?
Answer: Its TGI is over 100 µM.

Question: And the GI50 (HT29 colon)?
Answer: Its GI50 is over 100 µM.

Question: And the TGI (HT29 colon)?
Answer: The TGI was over 100 µM.

Question: What about the GI50 (NCI-H522 lung) of the same molecule?
Answer: The GI50 was over 100 µM.

Question: And the TGI (NCI-H522 lung)?
Answer: The TGI was over 100 µM.

Question: And the GI50 (OVCAR-5 ovarian)?
Answer: The GI50 was over 100 µM.

Question: What about the TGI (OVCAR-5 ovarian) of the same molecule?
Answer: Its TGI is over 100 µM.

Question: And the GI50 (PC-3 prostate)?
Answer: Its GI50 is over 100 µM.

Question: What about the TGI (PC-3 prostate) of the same molecule?
Answer: Its TGI is over 100 µM.

Question: And the GI50 (SF-268 CNS)?
Answer: Its GI50 is over 100 µM.

Question: What about the TGI (SF-268 CNS) of the same molecule?
Answer: The TGI was over 100 µM.

Question: What about the GI50 (UO-31 renal) of the same molecule?
Answer: Its GI50 is over 100 µM.

Question: And the TGI (UO-31 renal)?
Answer: The TGI was over 100 µM.
